Measured values reported in US12629374B2, “Antimalarial agents” (Merck Sharp & Dohme LLC, priority 2020, dated 2026).
Like-named read-outs stand apart in the source and are kept apart here.

Test system: ring stage parasites
Experiment: Parasite growth potency assay, 72 hours, LDH readout
Assay type: cell-based
Settings: parasite growth measured by LDH assay after 72 hours at 37° C., 0.7% rings, 2% haematocrit, read-out: EC50
Summary of the method: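 Parasite growth was quantified by LDH assay after a −80 °C freeze-thaw. Before that, compound was incubated for 72 h at 37 °C under humidified gas with ring-stage cultures adjusted to 0.7% parasitemia and 2% haematocrit in serum- and albumax-supplemented RPMI-Hepes.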

| Compound | EC50 (72 h) | EC50 |
| --- | --- | --- |
| CCC1(CC)CC(=O)N([C@H](CCS(C)(=O)=O)c2cccc(C(=O)N[C@H]3CC(C)(C)Oc4ccccc43)c2)C(=N)N1 [Example 156, [1-[1-[3-[[(4S)-2,2-dimethylchroman-4-yl]carbamoyl]phenyl]-3-methylsulfonyl-propyl]-4,4-diethyl-6-oxo-hexahydropyrimidin-2-ylidene]ammonium; 2,2,2-trifluoroacetate] | 5.7 nM |  |
| CC[C@]1(c2ccccc2)CC(=O)N(Cc2cc(F)cc(C(=O)N[C@@H]3c4ccccc4C[C@H]3O)c2)C(=N)N1 [Example 53, [(4R)-4-ethyl-1-[[3-fluoro-5-[[(1R,2R)-2-hydroxyindan-1-yl]carbamoyl]phenyl]methyl]-6-oxo-4-phenyl-hexahydropyrimidin-2-ylidene]ammonium; 2,2,2-trifluoroacetate] | 25.3 nM |  |
| CCC1(CC)CC(=O)N([C@H](c2ccc(S(C)(=O)=O)cc2)c2cccc(C(=O)N[C@H]3CC(C)(C)Oc4ccccc43)c2)C(=N)N1 [Example 115A, [1-[[3-[[(4S)-2,2-dimethylchroman-4-yl]carbamoyl]phenyl]-(4-methylsulfonylphenyl)methyl]-4,4-diethyl-6-oxo-hexahydropyrimidin-2-ylidene]ammonium; 2,2,2-trifluoroacetate] | 1 nM |  |
| CCC1(CC)CC(=O)N([C@@H](c2cccc(C(=O)N[C@H]3CCOc4ccccc43)c2)c2cccc(S(C)(=O)=O)c2)C(=N)N1 [Example 123A, [1-[[3-[[(4S)-chroman-4-yl]carbamoyl]phenyl]-(3-methylsulfonylphenyl)methyl]-4,4-diethyl-6-oxo-hexahydropyrimidin-2-ylidene]ammonium; 2,2,2-trifluoroacetate] | 1.9 nM |  |
| CCC1(CC)CC(=O)N(C(CC(OC)C(F)(F)F)c2cccc(C(=O)N[C@@H]3c4ccccc4C[C@H]3O)c2)C(=N)N1 (single isomer, unassigned) [Example 238B] |  | 67.5 nM |
| CCC[C@H](c1cncc(C(=O)N[C@H]2CCOc3ccccc32)c1)N1C(=N)NC(CC)(CC)CC1=O [Example 50, [1-[1-[5-[[(4S)-chroman-4-yl]carbamoyl]pyridin-1-ium-3-yl]butyl]-4,4-diethyl-6-oxo-hexahydropyrimidin-2-ylidene]ammonium; 2,2,2-trifluoroacetate] | 0.4 nM |  |
| CCC1(CC)CC(=O)N([C@@H](c2cccnc2)c2cccc(C(=O)N[C@H]3CC(C)(C)Oc4ccccc43)c2)C(=N)N1 [Example 100B, [1-[[3-[[(4S)-2,2-dimethylchroman-4-yl]carbamoyl]phenyl]-pyridin-1-ium-3-yl-methyl]-4,4-diethyl-6-oxo-hexahydropyrimidin-2-ylidene]ammonium; 2,2,2-trifluoroacetate] | 4.8 nM |  |
| CCC1(CC)CC(=O)N([C@H](CCOC)c2cc(F)cc(C(=O)NC3CCCOc4ccccc43)c2)C(=N)N1 (stereo in doubt) [Example 220, [4,4-diethyl-1-[1-[3-fluoro-5-(2,3,4,5-tetrahydro-1-benzoxepin-5-ylcarbamoyl)phenyl]-3-methoxy-propyl]-6-oxo-hexahydropyrimidin-2-ylidene]ammonium; 2,2,2-trifluoroacetate] | 2.4 nM |  |
| C=CC[C@H](c1cccc(C(=O)N[C@H]2CCOc3ccccc32)c1)N1C(=N)NC(CC)(CC)CC1=O [Example 41, [1-[1-[3-[[(4S)-chroman-4-yl]carbamoyl]phenyl]but-3-enyl]-4,4-diethyl-6-oxo-hexahydropyrimidin-2-ylidene]ammonium; 2,2,2-trifluoroacetate] | 0.9 nM |  |
| CC#CCC[C@H](c1cccc(C(=O)N[C@H]2CCOc3ccccc32)c1)N1C(=N)NC(CC)(CC)CC1=O [Example 74, [1-[1-[3-[[(4S)-chroman-4-yl]carbamoyl]phenyl]hex-4-ynyl]-4,4-diethyl-6-oxo-hexahydropyrimidin-2-ylidene]ammonium; 2,2,2-trifluoroacetate] | 0.9 nM |  |
| CCC1(CC)CC(=O)N([C@H](CCS(C)(=O)=O)c2cccc(C(=O)N[C@@H]3c4ccccc4OC(C)(C)[C@H]3O)c2)C(=N)N1 [Example 155, [4,4-diethyl-1-[1-[3-[[(3S,4R)-3-hydroxy-2,2-dimethyl-chroman-4-yl]carbamoyl]phenyl]-3-methylsulfonyl-propyl]-6-oxo-hexahydropyrimidin-2-ylidene]ammonium; 2,2,2-trifluoroacetate] | 17.2 nM |  |
| CCC1(CC)CC(=O)N([C@H](CCS(C)(=O)=O)c2cccc(C(=O)N[C@@H]3c4ccccc4C[C@]3(C)O)c2)C(=N)N1 [Example 154B, 3-[1-(4,4-diethyl-2-imino-6-oxo-hexahydropyrimidin-1-yl)-3-methylsulfonyl-propyl]-N-[(1R,2S)-2-hydroxy-2-methyl-indan-1-yl]benzamide] |  | 69 nM |
| CCC1(CC)CC(=O)N(C(CCOC)c2ccc(C(F)(F)F)c(C(=O)N[C@@H]3c4ccccc4C[C@]3(C)O)c2)C(=N)N1 (stereo partly drawn) [Example 242, 5-[1-(4,4-diethyl-2-imino-6-oxo-hexahydropyrimidin-1-yl)-3-methoxy-propyl]-N-[(1R,2S)-2-hydroxy-2-methyl-indan-1-yl]-2-(trifluoromethyl)benzamide] | 2.28 nM |  |
